Reference: patent publication US20140221424A1, “PHARMACEUTICAL COMPOSITIONS FOR USE IN THE TREATMENT OF CYSTIC FIBROSIS” (Vertex Pharmaceuticals Incorporated, priority 2013, published 2014)
Values after ≈ are worked out from the molar mass of the structure shown. Where two headings read alike, the source gives them in different places. Each block holds one compound with its values, some of them ahead of it.

Key:
[1] = system: patients with a G551D mutation; experiment: Population PK/PD analysis (Emax model) of FEV1 versus ivacaftor exposure; design: species or system human; details: pooled Phase 2a and Phase 3 data
Text: Therefore, median Cmin at EC90 was chosen as the target PK parameter for efficacy.

[2] = Clinical pharmacokinetics after oral administration; format: in vivo, human
Procedure: After every 12 hour dosing, steady-state plasma concentrations of ivacaftor were reached by days 3 to 5, with an accumulation ratio ranging from 2.2 to 2.9.
The exposure of ivacaftor increased approximately 2- to 4-fold when given with food containing fat. Therefore, KALYDECO™ should be administered with fat-containing food. Examples of fat-containing foods include eggs, butter, peanut butter, and cheese pizza. The median (range) tmax is approximately 4.0 (3.0; 6.0) hours in the fed state.
The mean apparent volume of distribution (Vz/F) of ivacaftor after a single dose of 275 mg of KALYDECO™ in the fed state was similar for healthy subjects and patients with CF. After oral administration of 150 mg every 12 hours for 7 days to healthy volunteers in a fed state, the mean (±SD) for apparent volume of distribution was 353 (122) L.
(§1) Following oral administration, the majority of ivacaftor (87.8%) is eliminated in the feces after metabolic conversion. The major metabolites M1 and M6 accounted for approximately 65% of the total dose eliminated with 22% as M1 and 43% as M6. There was negligible urinary excretion of ivacaftor as unchanged parent. […] The mean apparent clearance (CL/F) of ivacaftor was similar for healthy subjects and patients with CF.

[3] = system: CYP3A enzymes (i.e., CYP3A4 and CYP3A5); experiment: Metabolism by CYP3A (in vitro and clinical studies); format: in vitro ADME, human; details: for substrate of CYP3A enzymes (CYP3A4 and CYP3A5): in vitro studies
Text: (§2) Ivacaftor is extensively metabolized in humans. […] M1 and M6 are the two major metabolites of ivacaftor in humans. M1 has approximately one-sixth the potency of ivacaftor and is considered pharmacologically active. M6 has less than one-fiftieth the potency of ivacaftor and is not considered pharmacologically active.
(§3) The data obtained for KALYDECO™ without co-administration of inducers or inhibitors are used as reference.

[4] = system: mouse; experiment: In vivo mouse micronucleus test
Text: (§4) Ivacaftor was negative for genotoxicity in the following assays: Ames test for bacterial gene mutation, in vitro chromosomal aberration assay in Chinese hamster ovary cells, and in vivo mouse micronucleus test.

[5] = biological target: T1, G551D-CFTR protein (Homo sapiens, UniProt P13569, G551D); experiment: Transepithelial current (IT) in human bronchial epithelial cells expressing G551D-CFTR; format: cell-based; design: endogenous in cells; host or cells: human bronchial epithelial cells
[6] = system: male and female rats; experiment: Fertility and reproductive performance in rats; format: in vivo, rat
Procedure: Ivacaftor impaired fertility and reproductive performance indices in male and female rats at 200 mg/kg/day (approximately 5 and 6 times, respectively, the MRHD based on summed AUCs of ivacaftor and its metabolites). […] These impairments of fertility and reproductive performance in male and female rats at 200 mg/kg/day were attributed to severe toxicity.

[7] = system: healthy subjects; experiment: Thorough QT study (ECG evaluation); format: in vivo, human; details: 150 mg and 450 mg twice daily, 72 healthy subjects
Procedure: The highest repeated dose was 450 mg (in a tablet formulation) every 12 hours for 4.5 days (9 doses) in a trial evaluating the effect of KALYDECO™ on ECGs in healthy subjects.
The effect of multiple doses of ivacaftor 150 mg and 450 mg twice daily on QTc interval was evaluated in a randomized, placebo- and active-controlled (moxifloxacin 400 mg) four-period crossover thorough QT study in 72 healthy subjects.

[8] = Elimination / human PK study with radioactivity; format: in vivo; details: for share of the total dose eliminated as this metabolite: po
Text: as §1
KALYDECO™ has not been studied in patients with mild, moderate or severe renal impairment (creatinine clearance less than or equal to 30 mL/min) or in patients with end stage renal disease. No dose adjustments are recommended for mild and moderate renal impairment patients because of minimal elimination of ivacaftor and its metabolites in urine (only 6.6% of total radioactivity was recovered in the urine in a human PK study); however, caution is recommended when administering KALYDECO™ to patients with severe renal impairment or end stage renal disease.

[9] = system: mice; experiment: Two-year carcinogenicity study in mice; format: in vivo, mouse; details: oral doses up to 200 mg/kg/day
Procedure: (§5) Two-year studies were conducted in mice and rats to assess carcinogenic potential of KALYDECO™.

[10] = system: juvenile rats; experiment: Juvenile rat toxicology; format: in vivo; details: juvenile rats dosed postnatal day 7-35, 10 mg/kg/day and higher
Text: This finding has not been observed in older animals.

[11] = system: CYP3A; experiment: Drug interaction studies: other drugs on ivacaftor exposure; format: in vivo, human
Procedure: Drug interaction studies were performed with KALYDECO™ and other drugs likely to be co-administered or drugs commonly used as probes for pharmacokinetic interaction studies [see Drug Interactions (subsection 7 of section V)].
as §3

[12] = Solubility in water; format: physicochemical; details: practically insoluble
Text: Ivacaftor is a white to off-white powder that is practically insoluble in water (<0.05 microgram/mL).

[13] = system: rats; experiment: Teratogenicity in rats; format: in vivo, rat; details: maternal dose 200 mg/kg/day, approximately 6 times the MRHD
Text: (§6) There are no adequate and well-controlled studies of KALYDECO™ in pregnant women. […] Because animal reproduction studies are not always predictive of human response, KALYDECO™ should be used during pregnancy only if clearly needed.

[14] = system: lactating female rats; experiment: Excretion into milk of lactating rats; format: in vivo, rat
Procedure: Excretion of ivacaftor into human milk is probable. There are no human studies that have investigated the effects of ivacaftor on breast-fed infants. Caution should be exercised when KALYDECO™ is administered to a nursing person.

[15] = Plasma protein binding; format: in vitro ADME; details: human
Text: Ivacaftor is approximately 99% bound to plasma proteins, primarily to alpha 1-acid glycoprotein and albumin.

[16] = biological target: T1, G551D-CFTR protein; experiment: Single channel patch clamp, membrane patches from rodent cells expressing G551D-CFTR; format: biochemical; design: expressed in transfected cells; details: versus untreated cells, after addition of PICA and ATP
[17] = system: pregnant rats; experiment: Placental transfer in pregnant rats; format: in vivo, rat
Text: as §6

[18] = system: human red blood cells; experiment: Binding to red blood cells; format: in vitro ADME
[19] = biological target: T1, G551D-CFTR protein; experiment: CFTR-mediated transepithelial current (IT) in rodent cells expressing G551D-CFTR; format: cell-based; design: expressed in transfected cells
[20] = system: Chinese hamster ovary cells; experiment: In vitro chromosomal aberration assay; format: cell-based; details: CHO cells
Text: as §4

[21] = system: bacterial gene mutation; experiment: Ames test for bacterial gene mutation; format: cell-based
Text: as §4

[22] = Pharmacokinetics in moderate hepatic impairment; format: in vivo, human
Procedure: Therefore, a reduced KALYDECO™ dose of 150 mg once daily is recommended for patients with moderate hepatic impairment. The impact of mild hepatic impairment (Child-Pugh Class A) on pharmacokinetics of ivacaftor has not been studied, but the increase in ivacaftor AUC0-∞ is expected to be less than two-fold. Therefore, no dose adjustment is necessary for patients with mild hepatic impairment. The impact of severe hepatic impairment (Child-Pugh Class C, score 10-15) on pharmacokinetics of ivacaftor has not been studied. […] When benefits are expected to outweigh the risks, KALYDECO™ should be used with caution in patients with severe hepatic impairment at a dose of 150 mg given once daily or less frequently.
Therefore, a reduced dose of 150 mg once daily is recommended in patients with moderate hepatic impairment.

[23] = system: rabbits; experiment: Teratogenicity in rabbits; format: in vivo, rabbit; details: maternal dose 100 mg/kg/day, approximately 12 times the MRHD
Text: as §6

[24] = system: rats; experiment: Two-year carcinogenicity study in rats; format: in vivo, rat; details: oral doses up to 50 mg/kg/day
Procedure: as §5

[25] = system: pregnant rabbits; experiment: Placental transfer in pregnant rabbits; format: in vivo, rabbit
Text: as §6

[26] = Potency of metabolites relative to ivacaftor
Text: as §2

[27] = rats, 200 mg/kg/day, dams dosed prior to and during early pregnancy
[28] = moderately impaired hepatic function (Child-Pugh Class B, score 7 to 9)

T1 sequence (P13569 whole entry G551D): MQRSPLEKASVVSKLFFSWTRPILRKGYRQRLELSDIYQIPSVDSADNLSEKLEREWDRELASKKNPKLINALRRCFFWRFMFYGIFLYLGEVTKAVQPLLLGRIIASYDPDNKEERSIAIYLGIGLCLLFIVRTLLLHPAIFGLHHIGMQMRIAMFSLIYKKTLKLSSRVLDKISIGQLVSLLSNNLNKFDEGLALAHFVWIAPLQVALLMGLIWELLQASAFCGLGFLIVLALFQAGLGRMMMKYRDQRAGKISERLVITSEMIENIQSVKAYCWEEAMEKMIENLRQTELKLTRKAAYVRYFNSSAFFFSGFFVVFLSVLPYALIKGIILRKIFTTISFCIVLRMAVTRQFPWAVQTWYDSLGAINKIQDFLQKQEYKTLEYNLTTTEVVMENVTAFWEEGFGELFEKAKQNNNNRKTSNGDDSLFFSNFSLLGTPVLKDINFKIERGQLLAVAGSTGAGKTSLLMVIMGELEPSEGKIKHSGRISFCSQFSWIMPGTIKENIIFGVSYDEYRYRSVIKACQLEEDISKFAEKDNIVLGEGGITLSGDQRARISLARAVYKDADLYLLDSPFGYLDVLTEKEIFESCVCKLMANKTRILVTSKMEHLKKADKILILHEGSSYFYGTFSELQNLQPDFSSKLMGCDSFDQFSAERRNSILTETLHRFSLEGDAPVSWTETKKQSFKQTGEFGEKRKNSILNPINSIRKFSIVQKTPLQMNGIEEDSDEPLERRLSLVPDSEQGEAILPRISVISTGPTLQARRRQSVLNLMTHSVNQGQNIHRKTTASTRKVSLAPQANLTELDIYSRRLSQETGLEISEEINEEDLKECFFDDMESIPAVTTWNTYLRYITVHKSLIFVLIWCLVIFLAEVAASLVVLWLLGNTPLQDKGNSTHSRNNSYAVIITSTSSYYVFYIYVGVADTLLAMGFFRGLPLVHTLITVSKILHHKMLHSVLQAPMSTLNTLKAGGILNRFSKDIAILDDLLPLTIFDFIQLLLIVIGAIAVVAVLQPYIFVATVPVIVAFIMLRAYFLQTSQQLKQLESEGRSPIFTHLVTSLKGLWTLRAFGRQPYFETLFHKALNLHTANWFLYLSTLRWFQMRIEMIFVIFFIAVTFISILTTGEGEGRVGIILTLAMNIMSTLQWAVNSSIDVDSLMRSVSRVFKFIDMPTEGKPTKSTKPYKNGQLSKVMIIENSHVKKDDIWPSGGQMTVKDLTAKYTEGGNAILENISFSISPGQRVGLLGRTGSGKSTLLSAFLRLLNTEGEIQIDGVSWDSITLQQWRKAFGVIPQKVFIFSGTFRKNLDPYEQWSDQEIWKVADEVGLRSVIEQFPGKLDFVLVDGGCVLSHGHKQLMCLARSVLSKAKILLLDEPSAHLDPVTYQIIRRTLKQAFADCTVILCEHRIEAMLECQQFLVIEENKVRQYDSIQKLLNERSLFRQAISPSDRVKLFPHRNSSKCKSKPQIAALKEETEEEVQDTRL

SMILES: CC(C)(C)c1cc(C(C)(C)C)c(NC(=O)c2c[nH]c3ccccc3c2=O)cc1O [Ivacaftor, N-[2,4-bis(1,1-dimethylethyl)-5-hydroxyphenyl]-1,4-dihydro-4-oxoquinoline-3-carboxamide]
- EC50, FEV1 versus ivacaftor exposure, Emax model [1]: 0.045 µg/mL (≈ 0.115 µM)
- EC90, FEV1 versus ivacaftor exposure, Emax model [1]: 0.405 µg/mL (≈ 1.03 µM)
- apparent volume of distribution, mean (±SD) ([2]; 150 mg orally every 12 hours for 7 days, healthy volunteers, fed state): 353 (122) L
- increase of exposure when given with food containing fat ([2]; human, in vivo): 2-4 fold
- mean apparent clearance (CL/F), healthy subjects versus patients with CF ([2]; human, in vivo): similar
- pharmacokinetics, healthy adult volunteers versus patients with CF ([2]; human, in vivo): similar
- Tmax ([2]; human, in vivo, fed state, read-out: median (range) tmax): ~4 h
- half-life ([2]; human, in vivo, following a single dose, read-out: apparent terminal half-life (converted)): ~12 h
- AUC ([2]; human, in vivo, single 150 mg oral dose, healthy volunteers, fed state, read-out: AUC, mean (±SD)): 10600 ng·h/mL
- Cmax ([2]; human, in vivo, single 150 mg oral dose, healthy volunteers, fed state, read-out: Cmax, mean (±SD)): 768 ng/mL
- Tmax ([2]; human, in vivo, single 150 mg oral dose, healthy volunteers, fed state, read-out: time of peak plasma concentrations (Tmax)): ~4 h
- mean apparent volume of distribution (Vz/F), healthy subjects versus patients with CF ([2]; single dose of 275 mg, fed state): similar
- primary route of metabolism ([3]; in vitro and clinical studies): primarily metabolized by CYP3A
- substrate of CYP3A enzymes (CYP3A4 and CYP3A5) [3]: substrates
- genotoxicity [4]: negative
- EC50 [5]: 236 ± 200 nM
- increase of IT ([5]; human bronchial epithelial cells expressing G551D-CFTR, following addition of a cAMP agonist): 10 fold
- prolonged diestrus ([6]; female rats, 200 mg/kg/day): Increases
- fertility and reproductive performance indices ([6]; male and female rats, 200 mg/kg/day, attributed to severe toxicity): impaired
- fertility and reproductive performance indices ([6]; male or female rats, ≦100 mg/kg/day (approximately 3 times the MRHD)): No effects
- corpora lutea, implantations, and viable embryos [6, 27]: decreased
- number of females with all nonviable embryos [6, 27]: increased
- upper bound of the one-sided 95% confidence interval for the largest placebo adjusted, baseline-corrected QTcF [7]: below 10 ms
- urinary excretion as unchanged parent ([8]; in vivo): negligible
- total radioactivity recovered in the urine ([8]; ivacaftor and its metabolites, human PK study): 6.6%
- tumorigenicity [9]: No evidence of tumorigenicity
- cataracts [10]: Cataracts were seen
- increase of ivacaftor exposure ([11]; co-administration with fluconazole, a moderate inhibitor of CYP3A): 3 fold
- increase of ivacaftor exposure (AUC) ([11]; co-administration with ketoconazole, a strong CYP3A inhibitor): 8.5 fold
- decrease of ivacaftor exposure (AUC) ([11]; co-administration with rifampin, a strong CYP3A inducer): approximately 9 fold
- solubility [12]: < 0.05 µg/mL
- teratogenic effects [13]: not teratogenic
- excretion into milk [14]: excreted into the milk
- fraction unbound [15]: ~0.01
- increase of open probability of G551D-CFTR protein [16]: 6 fold
- placental transfer [17]: observed
- binding to human red blood cells [18]: does not bind
- increase of IT in the absence of cAMP agonist [19]: did not increase
- EC50 ([19]; following addition of a cAMP agonist, read-out: EC50, increase of CFTR-mediated transepithelial current (IT)): 100 ± 47 nM
- genotoxicity [20]: negative
- genotoxicity [21]: negative
- AUC(0-inf) ([22]; human, in vivo, oral, single dose of 150 mg, moderately impaired hepatic function, read-out: AUC0-∞, mean (±SD)): 16800 ng·h/mL
- Cmax ([22]; human, in vivo, oral, single dose of 150 mg, moderately impaired hepatic function, read-out: Cmax, mean (±SD)): 735 ng/mL
- Cmax compared with healthy subjects matched for demographics [22, 28]: similar
- increase in AUC0-∞ compared with healthy subjects matched for demographics [22, 28]: approximately two-fold
- teratogenic effects [23]: not teratogenic
- tumorigenicity [24]: No evidence of tumorigenicity
- placental transfer [25]: observed

SMILES: CC(C)(C)c1cc(C(C)(C)CO)c(O)cc1NC(=O)c1c[nH]c2ccccc2c1=O [M1, hydroxymethyl-ivacaftor]
- substrate of CYP3A enzymes (CYP3A4 and CYP3A5) [3]: substrates
- share of the total dose eliminated as this metabolite ([8]; in vivo): 22%
- potency relative to ivacaftor [26]: approximately one-sixth
- increase of M1 exposure ([11]; ivacaftor co-administered with fluconazole): 1.9 fold
- increase of M1 exposure ([11]; ivacaftor co-administered with ketoconazole): 1.7 fold

- share of the total dose eliminated as this metabolite ([8]; in vivo): 43%
SMILES: CC(C)(C)c1cc(C(C)(C)C(=O)O)c(O)cc1NC(=O)c1c[nH]c2ccccc2c1=O [M6]
- potency relative to ivacaftor [26]: less than one-fiftieth
